In the CheMixHub viscosity set:
± gives the uncertainty stated by the source.

Assay: xn = mol fraction of the nth substance listed

CCOC(=O)OCC + CCCCO
101 kPa
Settings	viscosity [mPa·s]
293.15 K, x1 = 0.05477	2.407
293.15 K, x1 = 0.1013	2.092
293.15 K, x1 = 0.1989	1.633
293.15 K, x1 = 0.3128	1.321
293.15 K, x1 = 0.4106	1.145
293.15 K, x1 = 0.5009	1.023
293.15 K, x1 = 0.6135	0.901
293.15 K, x1 = 0.7033	0.838
293.15 K, x1 = 0.7967	0.806
293.15 K, x1 = 0.8803	0.807
293.15 K, x1 = 0.9292	0.802
303.15 K, x1 = 0.1264	1.549
303.15 K, x1 = 0.2963	1.093
303.15 K, x1 = 0.4038	0.957
303.15 K, x1 = 0.5148	0.867
303.15 K, x1 = 0.6085	0.808
303.15 K, x1 = 0.7037	0.759
303.15 K, x1 = 0.8066	0.717
303.15 K, x1 = 0.9043	0.701
313.15 K, x1 = 0.04531	1.564
313.15 K, x1 = 0.2917	0.947
313.15 K, x1 = 0.4025	0.819
313.15 K, x1 = 0.5009	0.743
313.15 K, x1 = 0.6129	0.679
313.15 K, x1 = 0.7014	0.645
313.15 K, x1 = 0.81	0.628
313.15 K, x1 = 0.9091	0.619

Cc1ccccc1C + CCCCO
308.15 K, 101 kPa
Settings	viscosity [mPa·s]
x2 = 0.0515	0.62 ± 0.013
x2 = 0.1019	0.659 ± 0.014
x2 = 0.1872	0.672 ± 0.014
x2 = 0.3031	0.687 ± 0.014
x2 = 0.4127	0.752 ± 0.016
x2 = 0.5164	0.808 ± 0.017
x2 = 0.6146	0.912 ± 0.019
x2 = 0.7079	1.021 ± 0.021
x2 = 0.7965	1.135 ± 0.024
x2 = 0.8809	1.326 ± 0.028
x2 = 0.9612	1.564 ± 0.032

CCC#N + CCCCOC(C)=O
303.15 K, 101.33 kPa
Settings	viscosity [mPa·s]
x1 = 0.11	0.6161 ± 0.0044
x1 = 0.2014	0.5958 ± 0.0043
x1 = 0.2942	0.5799 ± 0.0043
x1 = 0.4034	0.5557 ± 0.0042
x1 = 0.5034	0.5332 ± 0.0041
x1 = 0.594	0.5076 ± 0.004
x1 = 0.7008	0.4785 ± 0.0038
x1 = 0.798	0.4496 ± 0.0037
x1 = 0.8966	0.419 ± 0.0036

CC(C)[C@@H]1CC[C@@H](C)C[C@H]1O + CCCO
Settings	viscosity [mPa·s]
298.15 K, 101.33 kPa, x1 = 0.5	28.39

CCCCCCCCCCO + CCCO
viscosity [mPa·s], 101 kPa
Settings	298.15 K	308.15 K	318.15 K
x2 = 0.05	10.52 ± 0.11	7.206 ± 0.071	5.14 ± 0.049
x2 = 0.1	10.05 ± 0.1	6.914 ± 0.068	4.927 ± 0.047
x2 = 0.15	9.562 ± 0.095	6.633 ± 0.065	4.716 ± 0.046
x2 = 0.2	9.064 ± 0.089	6.36 ± 0.062	4.508 ± 0.044
x2 = 0.25	8.557 ± 0.083	6.093 ± 0.059	4.306 ± 0.042
x2 = 0.3	8.046 ± 0.077	5.831 ± 0.056	4.109 ± 0.04
x2 = 0.35	7.534 ± 0.071	5.572 ± 0.052	3.921 ± 0.039
x2 = 0.4	7.023 ± 0.065	5.314 ± 0.049	3.741 ± 0.037
x2 = 0.45	6.517 ± 0.06	5.058 ± 0.046	3.572 ± 0.036
x2 = 0.5	6.018 ± 0.054	4.802 ± 0.043	3.416 ± 0.034
x2 = 0.55	5.529 ± 0.049	4.547 ± 0.039	3.275 ± 0.033
x2 = 0.6	5.052 ± 0.044	4.293 ± 0.036	3.15 ± 0.031
x2 = 0.65	4.589 ± 0.039	4.04 ± 0.033	3.044 ± 0.03
x2 = 0.7	4.142 ± 0.035	3.79 ± 0.03	2.96 ± 0.029
x2 = 0.75	3.712 ± 0.03	3.543 ± 0.027	2.9 ± 0.028
x2 = 0.8	3.303 ± 0.026	3.301 ± 0.024	2.866 ± 0.027
x2 = 0.85	2.915 ± 0.023	3.065 ± 0.022	2.862 ± 0.027
x2 = 0.9	2.549 ± 0.019	2.839 ± 0.021	2.89 ± 0.026
x2 = 0.95	2.207 ± 0.016	2.624 ± 0.021	2.953 ± 0.026

COCCOCCO + CCCO
viscosity [mPa·s], 101 kPa
Settings	298.15 K	308.15 K	318.15 K
x1 = 0.0105	1.951 ± 0.031	1.522 ± 0.024	1.248 ± 0.02
x1 = 0.0278	1.961 ± 0.031	1.547 ± 0.025	1.25 ± 0.021
x1 = 0.0448	1.966 ± 0.031	1.559 ± 0.025	1.259 ± 0.021
x1 = 0.0797	1.979 ± 0.031	1.566 ± 0.025	1.275 ± 0.021
x1 = 0.0978	1.998 ± 0.032	1.566 ± 0.025	1.28 ± 0.021
x1 = 0.1316	2.02 ± 0.032	1.581 ± 0.026	1.296 ± 0.021
x1 = 0.1852	2.069 ± 0.033	1.613 ± 0.026	1.326 ± 0.022
x1 = 0.2267	2.104 ± 0.034	1.648 ± 0.027	1.369 ± 0.023
x1 = 0.2853	2.158 ± 0.035	1.693 ± 0.028	1.399 ± 0.023
x1 = 0.3029	2.172 ± 0.035	1.713 ± 0.028	1.415 ± 0.023
x1 = 0.3226	2.2 ± 0.035	1.724 ± 0.028	1.43 ± 0.024
x1 = 0.3872	2.284 ± 0.037	1.79 ± 0.03	1.486 ± 0.025
x1 = 0.439	2.354 ± 0.039	1.84 ± 0.031	1.532 ± 0.026
x1 = 0.4811	2.416 ± 0.04	1.888 ± 0.032	1.573 ± 0.026
x1 = 0.5266	2.42 ± 0.04	1.94 ± 0.032	1.618 ± 0.027
x1 = 0.5519	2.528 ± 0.042	1.969 ± 0.033	1.643 ± 0.028
x1 = 0.6051	2.624 ± 0.044	2.037 ± 0.035	1.694 ± 0.029
x1 = 0.6805	2.748 ± 0.047	2.138 ± 0.037	1.778 ± 0.031
x1 = 0.7239	2.835 ± 0.049	2.193 ± 0.038	1.832 ± 0.032
x1 = 0.7925	2.967 ± 0.051	2.29 ± 0.04	1.917 ± 0.034
x1 = 0.8237	3.034 ± 0.053	2.338 ± 0.041	1.947 ± 0.034
x1 = 0.8896	3.163 ± 0.056	2.439 ± 0.044	2.027 ± 0.036
x1 = 0.9096	3.207 ± 0.057	2.464 ± 0.044	2.051 ± 0.037
x1 = 0.9417	3.265 ± 0.058	2.509 ± 0.045	2.086 ± 0.038
x2 = 0.0151	3.393 ± 0.061	2.614 ± 0.048	2.14 ± 0.039

Cc1ccccc1C + CCCO
viscosity [mPa·s], 100 kPa
Settings	298.15 K	308.15 K
x2 = 0.063	0.7471 ± 0.09	0.6664 ± 0.08
x2 = 0.123	0.7703 ± 0.093	0.6751 ± 0.081
x2 = 0.2215	0.784 ± 0.094	0.6782 ± 0.082
x2 = 0.3496	0.8508 ± 0.1	0.7537 ± 0.091
x2 = 0.4648	0.9239 ± 0.11	0.806 ± 0.097
x2 = 0.5689	1.017 ± 0.12	0.8647 ± 0.1
x2 = 0.6634	1.124 ± 0.14	0.9367 ± 0.11
x2 = 0.7497	1.264 ± 0.15	1.029 ± 0.12
x2 = 0.8287	1.454 ± 0.17	1.155 ± 0.14
x2 = 0.9014	1.626 ± 0.2	1.275 ± 0.15
x2 = 0.9684	1.836 ± 0.22	1.49 ± 0.18

NC(N)=O + CCCO
viscosity [mPa·s], 101 kPa
Settings	298.15 K	303.15 K	308.15 K	313.15 K	318.15 K
x1 = 0.025	2.16 ± 0.055	1.896 ± 0.048	1.691 ± 0.043	1.502 ± 0.038	1.339 ± 0.034
x1 = 0.0385	2.24 ± 0.057	2.003 ± 0.051	1.768 ± 0.045	1.568 ± 0.04	1.401 ± 0.036

CCCCCC(=O)[O-].[NH3+]CCO + CCO
viscosity [mPa·s], 101 kPa
Settings	x1 = 0.0135	x2 = 0.794	x2 = 0.8544	x2 = 0.9	x2 = 0.9391	x2 = 0.9563	x2 = 0.9719
293.15 K	1.548 ± 0.071	13.46 ± 0.7	7.158 ± 0.45	4.35 ± 0.24	2.76 ± 0.14	2.28 ± 0.11	1.86 ± 0.084
298.15 K	1.428 ± 0.067	11.38 ± 0.6	6.24 ± 0.32	3.87 ± 0.19	2.472 ± 0.12	2.046 ± 0.096	1.74 ± 0.081
303.15 K	1.29 ± 0.061	9.792 ± 0.52	5.43 ± 0.24	3.39 ± 0.15	2.22 ± 0.1	1.848 ± 0.087	1.512 ± 0.075
